Structures can show the parent of a compound that is named as a salt.

Assay [1] deals with Rat Hepatic V1 Receptors (Rattus norvegicus, UniProt P30560). Description: Binding Assay to Rat Hepatic V1 Receptors. The protocol: Binding Assay to Rat Hepatic V1 Receptors
Rat liver plasma membranes expressing the vasopressin V1 receptor subtypes are isolated by sucrose density gradient according to the method described by Lesko et al, (1973). These membranes are quickly suspended in 50.0 mM Tris.HCl buffer, pH 7.4, containing 0.2% bovine serum albumin (BSA) and 0.1 mM phenylmethylsulfonylfluoride (PMSF) and kept frozen at -70° C. until used in subsequent binding experiments. For binding experiments, the following is added to the wells of a ninety-six well format microtiter plate: 100 μl of 100.0 mM Tris.HCl buffer containing 10.0 mM MgCl2, 0.2% heat inactivated BSA and a mixture of protease inhibitors: leupeptin, 1.0 mg %; aprotinin, 1.0 mg %; 1,10-phenanthroline,2.0 mg %; trypsin inhibitor, 10.0 mg % and 0.1 mM PMSF, 20.0 μl of [phenylalanyl-3,4,5,-^3 H] vaso-pressin (S.A. 45.1 Ci/mmole) at 0.8 nM, and the reaction initiated by the addition of 80 μl of tissue membranes containing 20 μg of tissue protein. The plates are kept undisturbed on the bench top at room temperature for 120 min. to reach equilibrium. Non-specific samples are assayed in the presence of 0.1 μm of the unlabeled antagonist phenylalanylvasopressin, added in 20.0 μl volume. For test compounds, these are solubilized in 50% dimethylsulfoxide (DMSO) and added in 20.0 μl volume to a final incubation volume of 200 μl. Upon completion of binding, the content of each well is filtered off, using a Brandel® cell Harvester (Gaithersburg, Md.). The radioactivity trapped on the filter disk by the ligand-receptor complex is assessed by liquid scintillation counting in a Packard LS Counter, with an efficiency of 65% for tritium. The data are analyzed for IC50 values by the LUNDON-2 program for competition (LUNDON SOFTWARE, Ohio).

Assay [2] addresses T1, Rat Kidney Medullary V2 Receptors (Rattus norvegicus, UniProt Q00788).
T1 construct: Medullary tissues from rat kidneys are dissected out; from tissue; host or cells: rat kidney medulla membranes
Description: biochemical. It counts as binding. The protocol: Binding Assay to Rat Kidney Medullary V2 Receptors
Medullary tissues from rat kidneys are dissected out, cut into small pieces and soaked in a […] sodium chloride solution containing 1.0 mM EDTA with many changes of the liquid phase, until the solution is clear of blood. The tissue is homogenized in a 0.25M sucrose solution containing 1.0 mM EDTA and 0.1 mM PMSF using a Potter-Elvehjem homogenizer with a teflon pestle. The homogenate is filtered through several layers (4 layers) of cheese cloth. The filtrate is rehomogenized using a dounce homogenizer, with a tight fitting pestle. The final homogenate is centrifuged at 1500×g for 15 min. The nuclear pellet is discarded and the supernatant fluid recentrifuged at 40,000×g for 30 min. The resulting pellet formed contains a dark inner part with the exterior, slightly pink. The pink outer part is suspended in a small amount of 50.0 mM Tris.HCl buffer, pH 7.4. The protein content is determined by the Lowry's method (Lowry et al, J. Biol. Chem., 1953). The membrane suspension is stored at -70° C., in 50.0 mM Tris.HCl, containing 0.2% inactivated BSA and 0.1 mM PMSF in aliquots of 1.0 ml containing 10.0 mg protein per ml of suspension until use in subsequent binding experiments.
For binding experiments, the following is added in μl volume to wells of a 96 well format of a microtiter plate: 100.0 μl of 100.0 mM Tris.HCl buffer containing 0.2% heat inactivated BSA, 10.0 mM MgCl2 and a mixture of protease inhibitors: leupeptin, 1.0 mg %; aprotinin, 1.0 mg %; 1,10-phenanthroline, 2.0 mg %; trypsin inhibitor, 10.0 mg % and 0.1 mM PMSF, 20.0 μl of [^3 H] Arginine^8, vasopressin (S.A. 75.0 Ci/mmole) at 0.8 nM and the reaction initiated by the addition of 80.0 μl of tissue membranes (200.0 μg tissue protein). The plates are left undisturbed on the bench top for 120 min. to reach equilibrium. Non-specific binding is assessed in the presence of 1.0 μM of unlabeled ligand, added in 20 μl volume. For test compounds, these are solubilized in 50% dimethylsulfoxide (DMSO) and added in 20.0 μl volume to a final incubation volume of 200 μl. Upon completion of binding, the content of each well is filtered off, using a Brandel® cell Harvester (Gaithersburg, Md.). The radioactivity trapped on the filter disk by the ligand-receptor complex is assessed by liquid scintillation counting in a Packard LS Counter, with an efficiency of 65% for tritium. The data are analyzed for IC50 values by the LUNDON-2 program for competition (LUNDON SOFTWARE, Ohio).

Assay [3] has as its target T2, oxytocin receptors (Rattus norvegicus, UniProt P70536).
T2 sequence (P70536 1-388): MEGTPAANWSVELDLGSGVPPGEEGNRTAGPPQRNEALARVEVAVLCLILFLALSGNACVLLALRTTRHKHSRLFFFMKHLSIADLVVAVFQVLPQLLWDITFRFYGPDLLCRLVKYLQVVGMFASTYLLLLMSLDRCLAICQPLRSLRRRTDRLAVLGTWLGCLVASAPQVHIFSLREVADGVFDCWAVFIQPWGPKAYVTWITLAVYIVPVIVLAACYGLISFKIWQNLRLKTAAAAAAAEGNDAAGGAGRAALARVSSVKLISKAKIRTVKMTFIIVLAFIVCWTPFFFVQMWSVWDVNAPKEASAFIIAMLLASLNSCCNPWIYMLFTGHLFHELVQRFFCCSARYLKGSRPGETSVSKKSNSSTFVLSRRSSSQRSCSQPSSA
In words: Oxytocin Receptor Binding. The settings on record: for IC50: rat uterine membranes, [3H]oxytocin.
Description: Female Sprague-Dawley rats weighing approximately 200-250 g are injected intramuscularly (i.m.) with 0.3 mg/kg of body weight of diethylstilbestrol (DES). The rats are sacrificed 18 hours later under pentobarbital anesthesia. The uteri are dissected out, cleaned of fat and connective tissues and rinsed in 50 ml of normal saline. The tissue pooled from six rats is homogenized in 50 ml of 0.01 mM Tris.HCl, containing 0.5 mM dithiothreitol and 1.0 mM EDTA, adjusted to pH 7.4, using a polytron at setting 6 with three passes of 10 sec each. The homogenate is passed through two (2) layers of cheesecloth and the filtrate centrifuged at 1000×g for 10 min. The clear supernatant is removed and recentrifuged at 165,000×g for 30 min. The resulting pellet containing the oxytocin receptors is resuspended in 50.0 mM Tris.HCl containing 5.0 mM MgCl2 at pH 7.4, to give a protein concentration of 2.5 mg/ml of tissue suspension. This preparation is used in subsequent binding assays with [^3 H]Oxytocin.
Binding of 3,5-[^3 H]Oxytocin ([^3 H]OT) to its receptors is done in microtiter plates using [^3 H]OT, at various concentrations, in an assay buffer of 50.0 mM Tris.HCl, pH 7.4 and containing 5.0 mM MgCl2, and a mixture of protease inhibitors: BSA, 0.1 mg; aprotinin, 1.0 mg; 1,10-phenanthroline, 2.0 mg; trypsin, 10.0 mg; and PMSF, 0.3 mg per 100 ml of buffer solution. Non-specific binding is determined in the presence of 1.0 uM unlabeled OT. The binding reaction is terminated after 60 min., at 220° C., by rapid filtration through glass fiber filters using a Brandel® cell harvester (Bio-medical Research and Development Laboratories, Inc., Gaithersburg, Md.). Competition experiments are conducted at equilibrium using 1.0 nM [^3 H]OT and varying the concentration of the displacing agents. The concentrations of agent displacing 50% of [^3 H]OT at its sites (IC50) are calculated by a computer assisted LUNDON-2 program (LUNDON SOFTWARE INC., Ohio, USA).

T1 sequence (Q00788 whole entry): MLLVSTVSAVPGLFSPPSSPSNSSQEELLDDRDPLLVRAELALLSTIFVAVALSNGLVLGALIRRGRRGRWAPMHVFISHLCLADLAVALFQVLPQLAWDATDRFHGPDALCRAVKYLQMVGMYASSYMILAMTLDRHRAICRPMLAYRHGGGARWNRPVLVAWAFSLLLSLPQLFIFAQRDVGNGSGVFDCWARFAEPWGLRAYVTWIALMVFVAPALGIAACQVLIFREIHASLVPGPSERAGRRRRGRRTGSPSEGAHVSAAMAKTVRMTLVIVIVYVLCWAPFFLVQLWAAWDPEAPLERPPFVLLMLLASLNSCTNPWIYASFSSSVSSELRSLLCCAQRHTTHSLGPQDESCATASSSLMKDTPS
Rat Hepatic V1 Receptors, sequence (P30560 whole entry): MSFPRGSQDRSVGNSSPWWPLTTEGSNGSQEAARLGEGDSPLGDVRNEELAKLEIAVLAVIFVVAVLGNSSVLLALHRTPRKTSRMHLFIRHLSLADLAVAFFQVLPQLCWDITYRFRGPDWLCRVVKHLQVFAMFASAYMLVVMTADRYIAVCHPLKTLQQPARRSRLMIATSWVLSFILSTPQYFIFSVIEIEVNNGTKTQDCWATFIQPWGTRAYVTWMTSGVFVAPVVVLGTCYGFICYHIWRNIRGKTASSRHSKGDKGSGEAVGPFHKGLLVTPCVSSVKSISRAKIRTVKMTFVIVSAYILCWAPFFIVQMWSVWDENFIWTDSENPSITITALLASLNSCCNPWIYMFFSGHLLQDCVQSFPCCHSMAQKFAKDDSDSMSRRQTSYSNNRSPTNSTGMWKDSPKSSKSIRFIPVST

Broadly, the IC50 is the concentration at which inhibition is half-maximal. Lower therefore signals greater potency in that assay. With `O=C(Nc1ccc(C(=O)N2Cc3cccn3Cc3ccccc32)c(Cl)c1)c1ccccc1-c1ccccc1` [Example 319, N-[4-(5H-Pyrrolo[2,1-c][1,4]benzodiazepin-10(11H)-ylcarbonyl)-3-chlorophenyl][1,1'-biphenyl]-2-carboxamide], the figures for the IC50 in assay [1] and in assay [2] were 16 nM and 1.5 nM, respectively.
What is called inhibition is how much of the control response was suppressed. The compound `O=C(c1ccc(NC2CCc3ccccc32)nc1)N1Cc2cccn2Cc2ccccc21` (stereo not shown) [Example 350, 10-[[6-(1-Indanylamino)-3-pyridinyl)carbonyl]-10,11-dihydro-5H-pyrrolo[2,1-c][1,4]benzodiazepine] registered an inhibition at 10 µM in assay [3] of 95%. For the same compound, the IC50 in assay [3] stood at 205 nM; in assay [1], 15 nM; in assay [2], 34 nM.
`Cc1ccccc1C(=O)Nc1ncc(C(=O)N2Cc3cccn3Cc3ccccc32)cc1Br` [Example 12] yielded an inhibition at 10 µM in assay [3] of 98%. Further, the concentration for half-maximal inhibition (IC50) in assay [3] worked out at 800 nM; in assay [1], 210 nM; in assay [2], 24 nM.
Turning to `O=C(Nc1ccc(C(=O)N2Cc3cccn3Cc3ccccc32)cn1)c1ccccc1Br` [Example 8], the inhibition at 1 µM in assay [3] is 89%. Besides, the IC50 worked out at 150 nM in assay [3], 7 nM in assay [1] and 1.6 nM in assay [2].
`Cc1ncccc1C(=O)Nc1ccc(C(=O)N2Cc3cccn3Cc3ccccc32)cn1` [Example 329, N-[5-(5H-Pyrrolo[2,1-c][1,4]benzodiazepin-10(11H)-ylcarbonyl]-2-pyridinyl]-2-methylpyridine-3-carboxamide] registered an inhibition at 10 µM in assay [3] of 91%. The IC50 was found to be 190 nM in assay [3], 310 nM in assay [1] and 70 nM in assay [2].
In the case of `CN(C)c1ncccc1C(=O)Nc1ccc(C(=O)N2Cc3cccn3Cc3ccccc32)cc1` [Example 332, N-[4-(5H-Pyrrolo[2,1-c][1,4]benzodiazepin-10(11H)-ylcarbonyl)phenyl]-2-(dimethylamino)-pyridine-3-carboxamide Hydrochloride], the values for the IC50 in assay [3], in assay [1] and in assay [2] were 830 nM, 31 nM and 3.4 nM, respectively.
`Cc1ncccc1C(=O)Nc1ccc(C(=O)N2Cc3cccn3Cc3ccccc32)c(Cl)c1` [Example 328, N-[4-(5H-Pyrrolo[2,1-c][1,4]benzodiazepin-10(11H)-yl-carbonyl)-3-chlorophenyl]-2-methyl-pyridine-3-carboxamide]: the inhibition at 10 µM in assay [3] came out at 85%. Further, the values for the IC50 in assay [3], in assay [1] and in assay [2] were 570 nM, 3300 nM and 19 nM, respectively.
Regarding `O=C(Nc1ccc(C(=O)N2Cc3cccn3Cc3ccccc32)cc1)c1ccccc1-c1ccccc1` [Example 320, N-[4-(5H-Pyrrolo[2,1-c][1,4]benzodiazepin-10(11H)-ylcarbonyl)phenyl][1,1'-biphenyl]-2-carboxamide], the IC50 in assay [1] was determined as 3.4 nM; in assay [2], 2.6 nM.
As to `Cc1ccc(F)cc1C(=O)Nc1ccc(C(=O)N2Cc3ccnn3Cc3ccccc32)cn1` [Example 208, N-[5-(4H-Pyrazolo[5,1-c][1,4]benzodiazepin-5(10H)-ylcarbonyl)-2-pyridinyl]-5-fluoro-2-methylbenzamide], 10 µM produced 95% inhibition in assay [3]. Besides, the IC50 in assay [3] is 730 nM; in assay [1] it was 87 nM; in assay [2] it was 11 nM.
On to `O=C(Nc1ccc(C(=O)N2Cc3cccn3Cc3ccccc32)c(Cl)c1)c1ccccc1Cc1ccccc1` [Example 322, N-[4-(5H-Pyrrolo[2,1-c][1,4]benzodiazenin-10(11H)-ylcarbonyl)-3-chlorophenyl]-2-(phenylmethyl)benzamide], for which the values for the IC50 in assay [1] and in assay [2] were 670 nM and 11 nM, respectively.
As to `O=C(c1ccc(NCC2CCCCC2)nc1)N1Cc2cccn2Cc2ccccc21` [Example 263], in assay [3], testing at 10 µM gave an inhibition of 98%. Moreover, the IC50 came to 380 nM in assay [3], 200 nM in assay [1] and 360 nM in assay [2].
For `O=C(Nc1ccc(C(=O)N2Cc3ccnn3Cc3ccccc32)cn1)c1ccccc1-c1ccccc1` [Example 245], the IC50 in assay [1] amounted to 19 nM; in assay [2], 1 nM.
`CN1CCN(c2ncccc2C(=O)Nc2ccc(C(=O)N3Cc4cccn4Cc4ccccc43)cc2)CC1` [Example 337, N-[4-(5H-pyrrolo[2,1-c][1,4]benzodiazepin-10(11H)-ylcarbonyl)phenyl]-2-(4-methyl-1-piperazinyl)-pyridine-3-carboxamide] showed an inhibition at 1 µM in assay [3] of 16%. Besides, the IC50 amounted to 1300 nM in assay [1] and 650 nM in assay [2].
For `O=C(Nc1ccc(C(=O)N2Cc3cccn3Cc3ccccc32)cn1)c1ccccc1Cl` [Example 6], the inhibition at 1 µM in assay [3] worked out at 90%. The figures for the IC50 in assay [3], in assay [1] and in assay [2] were 140 nM, 11 nM and 1.8 nM, respectively.
Take `CN(C)c1ncccc1C(=O)Nc1ccc(C(=O)N2Cc3cccn3Cc3ccccc32)cc1` [Example 338, N-[4-(5H-Pyrrolo[2,1-c][1,4]benzodiazepin-10(11H)-ylcarbonyl)phenyl]-2-(dimethylamino)-pyridine-3-carboxamide]: at 10 µM the inhibition in assay [3] was 98%. The IC50 turned out to be 720 nM in assay [3], 37 nM in assay [1] and 4.8 nM in assay [2].
The corresponding values for `O=C(Nc1ccc(C(=O)N2Cc3cccn3Cc3ccccc32)cn1)c1ccc([N+](=O)[O-])cc1Cl` [Example 33] are 95%, 510 nM, 450 nM and 30 nM.
Regarding `O=C(Nc1ccc(C(=O)N2Cc3cccn3Cc3ccccc32)cc1)c1ccccc1Cc1ccccc1` [Example 321, N-[4-(5H-Pyrrolo[2,1-c][1,4]benzodiazepine-10(11H)-ylcarbonyl)phenyl]-2-(phenylmethyl)benzamide], the IC50 in assay [1] worked out at 18 nM; in assay [2] it was 5.1 nM.
In the case of `O=C(Nc1ccc(C(=O)N2Cc3cccn3Cc3ccccc32)cn1)c1ccc(F)cc1F` [Example 7], the inhibition at 10 µM in assay [3] was 66%; in assay [2], 58%.
In the case of `O=C(c1ccc(SC2CCCCC2)nc1)N1Cc2cccn2Cc2ccccc21` [Example 288, 10,11-Dihydro-10-[[6-(cyclohexylthio)-3-pyridinyl]carbonyl]-5H-pyrrolo-[2,1-c][1,4]benzodiazepine], the inhibition at 10 µM in assay [3] amounted to 94%; in assay [2], 54%. This compound also registered an IC50 in assay [3] of 1360 nM.

These data come from patent publication US5753648A, “Tricyclic benzazepine vasopressin antagonists” (American Cyanamid Company, priority 1996, dated 1998).
